Experimental data from paper PMC11154958, “Mechanism of Nitrone Formation by a Flavin-Dependent Monooxygenase” (Biochemistry, 2024).
Values joined by “and” are separate entries in the source; they are usually repeats but may differ in a detail not shown here. Equal entries are not always repeated. Where two headings read alike, the source gives them in different places.

Assays:
OxaD D63A [1] = biological target: T1, OxaD D63A (Penicillium oxalicum, UniProt A0A1B2TT15, D63A); experiment: Anaerobic stopped-flow, reductive-half reaction, D63A mutant; type: biochemical, Penicillium oxalicum F30; conditions: for kred2: slow phase
oxidized D63A = biological target: T2, oxidized D63A (Penicillium oxalicum, UniProt A0A1B2TT15, D63A); type: binding, Penicillium oxalicum F30; conditions: 15 μM oxidized D63A, roquefortine C 0–40 μM, pH 7.6; read-out: apparent KD
T2 sequence (A0A1B2TT15 1-467 D63A): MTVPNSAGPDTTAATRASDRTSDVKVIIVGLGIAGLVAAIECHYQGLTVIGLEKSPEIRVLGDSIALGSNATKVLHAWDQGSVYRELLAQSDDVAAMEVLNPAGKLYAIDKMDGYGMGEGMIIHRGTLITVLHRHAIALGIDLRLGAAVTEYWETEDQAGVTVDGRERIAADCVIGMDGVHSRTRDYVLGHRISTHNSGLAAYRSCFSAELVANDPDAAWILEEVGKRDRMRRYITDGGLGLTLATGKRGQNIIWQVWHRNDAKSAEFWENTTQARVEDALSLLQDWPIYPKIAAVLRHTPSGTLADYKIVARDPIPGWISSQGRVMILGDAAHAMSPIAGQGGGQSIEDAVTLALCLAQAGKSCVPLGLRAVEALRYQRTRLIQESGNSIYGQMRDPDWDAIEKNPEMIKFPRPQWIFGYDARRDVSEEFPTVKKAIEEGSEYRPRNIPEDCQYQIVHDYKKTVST
Procedure: (§1) These methods were adapted from Abdelwahab et al., 2016.[29] […] The instrument was blanked with each concentration of roquefortine C prior to recording the enzyme–substrate complex spectra. Each solution was 200 μL and contained 15 μM of enzyme, and various roquefortine C concentrations (0–40 μM). Prior to recording the spectra, the enzyme was incubated on ice for 5 min with the substrate and the spectra were measured immediately following the incubation.

oxidized OxaD = biological target: T3, oxidized OxaD (Penicillium oxalicum, UniProt A0A1B2TT15); type: binding, Penicillium oxalicum F30; conditions: 15 μM oxidized OxaD, roquefortine C 0–40 μM, pH 7.6; read-out: apparent KD
T3 sequence (A0A1B2TT15 1-467): T2 sequence (A0A1B2TT15 1-467 D63A)
Procedure: as §1

OxaD D63A [2] = biological target: T1, OxaD D63A
Procedure: (§2) OxaD D63A (D63A from hereon) was expressed and purified using the same procedures as those described for OxaD.
(§3) All oxygen consumption assays were performed using an Oxygraph+ system from Hansatech Instruments (Norfolk, U.K.). Assays were performed in 25 mM HEPES/Na^+ buffer, pH 7.6, 50 mM NaCl, 1% DMSO (750 μL total volume). […] Equation 1 was used to determine the turnover number (kcat) and Michaelis–Menten constant (KM).

OxaD D63A [3] = conditions: D63A vs OxaD
Procedure: as §2, §3

OxaD [4] = biological target: T4, OxaD (Penicillium oxalicum, UniProt A0A1B2TT15); set-up: method as in PMID 27505044; conditions: previous characterization; cited from earlier work
[5] = test system: cytochrome P450s in the liver and kidneys; set-up: method as in PMID 16019806; conditions: likely through binding to the heme in the active site; cited from earlier work
mice = test system: mice; set-up: method as in ref 11−14; conditions: mice exposed to roquefortine C; ref 11−14; cited from earlier work
OxaD [6] = biological target: T4, OxaD; experiment: Oxygen consumption assay, steady-state kinetics; conditions: OxaD 1 μM; pH 7.6, 1% DMSO; roquefortine C fixed 100 μM for cosubstrates; NADPH fixed 500 μM when roquefortine C varied
Procedure: All oxygen consumption assays were performed using an Oxygraph+ system from Hansatech Instruments (Norfolk, U.K.). Assays were performed in 25 mM HEPES/Na^+ buffer, pH 7.6, 50 mM NaCl, 1% DMSO (750 μL total volume).

OxaD [7] = biological target: T4, OxaD; conditions: for kred2: slow phase
Procedure: To remove oxygen from the enzyme sample, OxaD (or D63A) was degassed along with buffer solutions as previously described. The stopped-flow was incubated with an anaerobic solution of 0.6 μM glucose oxidase and 100 mM D-glucose in 100 mM sodium acetate, pH 5.0, overnight to remove any oxygen.[27] […] For all stopped-flow experiments, the concentrations listed are after mixing in the instrument. […] Absorbance changes between 200 and 800 nm were recorded. The decrease in absorbance at 446 nm was fit to eq 2 to obtain the observed rate constant of the fast phase (k1) and of the slow phase (k2). A446 is the absorbance at 446 nm, A is the amplitude of the phase, t is time, and C is the final absorbance at 446 nm. […] Oxygenated buffer was prepared by bubbling 30 cc/min (pressure regulated by a flowmeter) of 100% oxygen into the OxaD activity buffer on an ice bath for 1 h while stirring. The resulting oxygen solution has a concentration of 1.2 mM.[27] Oxidation of reduced OxaD or D63A was investigated at various concentrations of oxygen (100–600 μM) at room temperature. To obtain lower oxygen concentrations, the saturated oxygen solution was diluted with anaerobic buffer. Absorbance changes at 200–800 nm were recorded. Absorbance changes at 365 nm were fit to eq 4 to account for the absorbance increase and decrease. In eq 4, A365 is the absorbance values at 365 nm, A1 and A2 are the changes in absorbance related to a single phase, k1 is the rate of absorbance increase, and k2 is the rate of absorbance decrease. Absorbance increases at 446 nm were fit to eq 5, where A446 is the absorbance values at 446 nm, kobs is the observed rate and AΔ is the change in absorbance. In both eq 4 and eq 5, A0 is the initial absorbance and t is time. The bimolecular rate constant was determined using a linear equation. All data fitting was carried out with KaleidaGraph. Spectral deconvolution was carried out using a three-step model that accounted for the reduced enzyme–substrate complex, the enzyme-intermediate complex, and the final oxidized enzyme.

[8] = set-up: method as in ref 18−20; conditions: ref 18−20; cited from earlier work
[9] = test system: human breast and leukemia cancer cell lines; set-up: method as in ref 18−20; conditions: ref 18−20; cited from earlier work
OxaD D63A [10] = experiment: Anaerobic stopped-flow, reductive-half reaction, D63A mutant; type: biochemical, Penicillium oxalicum F30; conditions: D63A vs OxaD
[11] = D63A 10 μM, 10 μM roquefortine C, fast phase
[12] = D63A 10 μM, 10 μM roquefortine C
[13] = OxaD 10 μM, 10 μM roquefortine C, fast phase, apparent
[14] = OxaD 10 μM, 10 μM roquefortine C

C=CC(C)(C)[C@@]12C[C@H]3C(=O)N/C(=C/c4c[nH]cn4)C(=O)N3[C@@H]1Nc1ccccc12 [Roquefortine C]
enhancement of kred in the presence of substrate (OxaD D63A [1]; D63A, with vs without substrate): ~50 fold
Kd (oxidized D63A): 6.4 ± 0.2 µM
Kd (oxidized OxaD): 6.9 µM and ~6.9 µM
Km (OxaD D63A [2]; pH 7.6): 3.5 ± 0.9 µM
increase in kcat compared to OxaD (OxaD D63A [3]; oxygen consumption): ~2 fold
Km (OxaD [4]): 0.071 µM
kcat (OxaD [4]): 0.017 s^–1
effect on cytochrome P450s [5]: deactivate cytochrome P450s in the liver and kidneys
toxic effects in mice (mice): cytotoxic, immunotoxic, neurotoxic, and lung inflammatory effects
Km (OxaD [6]): 3 ± 1 µM
kcat (OxaD [6]): 0.93 ± 0.07 s^–1
enhancement of kred by presence of roquefortine C (OxaD [7]; OxaD, with vs without roquefortine C): 120 fold

C=CC(C)(C)[C@]12C=C(O)C(=O)N3/C(=C/c4cnc[nH]4)C(=O)N[C@@]31N(O)c1ccccc12 [glandicoline B]
antibacterial effects [8]: antibacterial effects

C=CC(C)(C)[C@]12C=C(OC)C(=O)N3/C(=C/c4c[nH]cn4)C(=O)N[C@@]31N(OC)c1ccccc12 [oxaline]
anticancer properties [9]: anticancer properties
antibacterial effects [8]: antibacterial effects

(R)-[4-^2H]-NADPH
kred1 (OxaD D63A [1]; [11]): 2.4 ± 0.08 s^–1
kred2 (OxaD D63A [1]; [12]): 0.17 ± 0.01 s^–1
^Dkred (kinetic isotope effect on rate of reduction) (OxaD D63A [1]; D63A, 4 mM synthesized NADPH vs 4 mM (R)-[4-^2H]-NADPH): ^Dkred = 3.60 ± 0.13
^Dkcat (kinetic isotope effect on kcat) (OxaD D63A [2]; D63A, synthesized NADPH vs (R)-[4-^2H]-NADPH): ^Dkcat = 3.40 ± 0.38
kred1 (OxaD [7]; [13]): 9.1 ± 0.10 s^–1
kred2 (OxaD [7]; [14]): 0.24 ± 0.05 s^–1

Melegranin
anticancer properties [9]: anticancer properties

NADH
kred1 (OxaD [7]; [13]): 43 ± 0.30 s^–1
kred2 (OxaD [7]; [14]): 0.34 ± 0.01 s^–1
increase in KD(app) relative to NADPH (OxaD [7]; OxaD, NADH vs NADPH): ~3 fold

NADPH
kred1 (OxaD D63A [1]; [11]): 9.0 ± 0.20 s^–1
kred2 (OxaD D63A [1]; [12]): 0.18 ± 0.01 s^–1
kred1/KD(app) (OxaD D63A [1]; D63A, 10 μM roquefortine C): 7.2 × 10^3 ± 1.4 × 10^3 M^–1·s^–1
kred1 (OxaD D63A [1]; D63A, No roquefortine C): 0.17 ± 0.01 s^–1
decrease in kred compared to OxaD (OxaD D63A [10]): ~5 fold
increase in KM compared to OxaD (OxaD D63A [3]): 25 fold
kred1 (OxaD [7]; [13]): 48 ± 0.80 s^–1
kred2 (OxaD [7]; [14]): 0.39 ± 0.01 s^–1
kred1/KD(app) (OxaD [7]; OxaD, 10 μM roquefortine C): 9.0 × 10^4 ± 2.0 × 10^3 M^–1·s^–1
kred1 (OxaD [7]; OxaD, No roquefortine C): 0.40 ± 0.10 s^–1

NADPH [Synthesized NADPH]
kred1 (OxaD D63A [1]; [11]): 8.6 ± 0.14 s^–1
kred2 (OxaD D63A [1]; [12]): 0.20 ± 0.04 s^–1
kred1 (OxaD [7]; [13]): 45 ± 0.70 s^–1
kred2 (OxaD [7]; [14]): 0.32 ± 0.02 s^–1
